{"source": "patent US11311560B2", "about": "“Cyclic plasmenylethanolamines” (MED-LIFE DISCOVERIES LP, priority 2017, dated 2022)", "key": {"Pex7 hypomorph/null mice": {"test_system": "Pex7 hypomorph/null mice", "assay": "Open field test after 4 weeks oral treatment", "type": "in vivo, mouse", "text": "The Pex7 hypomorph/null model is a hypomorphic (B6;129S6-Pex7^tm2.3Brav/s9) mouse model on a mixed background (C57BL/6NCrl and 129S6/SvEvTac). The hypomorphic allele in Pex7 hypomorph/null was generated by inserting an inverse neo cassette into intron 2 and lox P sites surrounding exon 3. The Pex7 null allele was generated using (B6.C-Tg(cmv-cre)1Cgn/J) mouse. The Pex7 hypomorph/null mouse model has 90% survival, 0.016-0.257% of wild type Pex7 mRNA levels and 20-30% plasmalogen levels Pex7 hypomoprh/null mice (3-4 months); and wild-type animals, males and females included in treatments and behavioral tests. Pex7 hypomorph/null mice were randomly assigned, after a baseline open field test, into 3 treatment groups: PPI-1040, PPI-1011, and vehicle controls, n=6 mice per group). PPI-1011 or PPI-1040 at 50 mg/kg was given by oral gavage 5 days per week (Monday-Friday) for 4 weeks. During the treatment period, animals were weighed weekly and observed for signs of distress. The open field test was performed at the end of treatment. To avoid selection bias, data analysis was performed only at the study end. Animals were sacrificed after a 24-hour post the last dose.\nThe open field test is a behavioral test used to evaluate the general locomotor activity, exploratory and anxiety-like behaviour of mice in response to a novel environment. The animal is placed inside a custom made square, gray acrylic box measuring 40×40×40 cm and allowed to move freely for 5 minutes while being recorded by an overhead camera (camera model). The footage was analyzed by an automated tracking system (Any-maze Video Tracking Software, Stoelting Co, Wood Dale, Ill., USA), for total distance traveled (meters) & activity (mobility in seconds) time. The total distance traveled is the total distance that animal traveled during the test and the activity measures the amount of time the animal was active during the test."}, "[1]": {"assay": "In vitro acid stability (pH 1-5, one hour, FI-MS/MS)", "type": "physicochemical", "protocol": "To test the ability of the vinyl ether in PPI-1040 to withstand the acidic nature of the stomach the compound was exposed to a range of acid strengths (pH 1-5). The stability of the vinyl bond was tested by exposing PPI-1040 (formulated as indicated above) to a pH range from 1-5. The pH solutions were made by serial 10-fold dilutions of 1M HCL in HPLC grade water until pH 4 is reached. Pure HPLC grade water was used as the control solution. The final dilution was completed by added a 20 μl aliquot to 200 μl of the PPI-1040 formulation resulting in a pH range from 1-5 (each condition was tested in triplicate). The mixture was vortexed at room temperature for one hour. Following the one hour incubation each solution was re-suspended in ethyl acetate to obtain 10 μl/ml solution which was analyzed using flow injection tandem mass spectrometry (FI-MS/MS) on a API4000™ mass spectrometer (Applied Biosystems) coupled with Agilent 1100 HPLC pump and auto sampler."}, "[2]": {"test_system": "wild-type mouse hippocampal brain slices", "assay": "Long term potentiation (LTP) on multi-electrode array", "type": "cell-based", "conditions": "0.5 μM, monitored for 60 mins, vs vehicle (0.2% DMSO)", "protocol": "It is hypothesized that brain plasmalogen levels affect neurotransmission. Accordingly, in this study, wild-type mouse hippocampal brain slices were incubated in artificial cerebro-spinal fluid containing either vehicle or PPI-1040. The slices were incubated on a multi-electrode array (MEA) with electrodes spaced 100 μm apart. A single electrode was selected to stimulate Schaffer collaterals cells which triggered field excitatory post-synaptic potential (fEPSP) in the stratum radiatum. After 10 minutes of control recording, in the presences of either PPI-1040 or vehicle, long term potentiation (LTP) was induced by a single train of 10 bursts composed of 4 stimuli at 100 Hz each with a 200 millisecond interval between."}, "[3]": {"test_system": "Pex7 homozygous hypomorphic animals (Pex7^neo/neo)", "assay": "Sub-chronic (9 weeks) dosing with PPI-1040: plasmalogen levels in plasma, liver, lung", "type": "in vivo, mouse", "conditions": "89.7 mg/Kg intraperitoneal, 3 doses per week", "protocol": "Pex7 homozygous hypomorphic animals)(Pex7^neo/neo) were used as a model of rhizomelic chondrodysplasia punctata to further test the ability of PPI-1040 to augment plasmalogen levels in a deficient system, following 9 weeks of sub-chronic dosing. PPI-1040 was stored in a sealed ampoule in solution with dichloromethane under argon gas until immediately before use. At time of treatment the ampoule was opened and dichloromethane was evaporated off under nitrogen gas for 10 minutes. Neobee M-5 was then added and the solution vortexed to generate a 22.4 mg/mL formulation. Animals were dosed via intraperitoneal injections with doses adjusted by weight to ensure an 89.7 mg/Kg dose to each animal. Animals were sacrificed following 9 weeks of treatment with 3 doses administered per week (Monday, Wednesday and Friday). Blood samples were collected in EDTA tubes and then spun down in a clinical centrifuge. Plasma samples were stored at −80° C. until thawed for analysis. Tissue samples were harvested and flash frozen in liquid nitrogen and then stored at −80° C. All tissue samples were homogenized using liquid nitrogen, generating a fine powder. Extraction and plasmalogen analysis by LC-MS/MS was carried out as described above."}, "[4]": {"conditions": "50 mg/kg oral gavage, 5 days per week, 5 minutes test"}}, "note": "“Also recorded” adds a separate entry of the source.", "data": [{"smiles": "CC/C=C\\C/C=C\\C/C=C\\C/C=C\\C/C=C\\C/C=C\\CCC(=O)OC(CO/C=C\\CCCCCCCCCCCCCC)COP1(=O)NCCO1", "note": "(stereo not shown) [PPI-1040, 1-(((Z)-hexadec-1-en-1-yl)oxy)-3-((2-oxido-1,3,2-oxazaphospholidin-2-yl)oxy)propan-2-yl (4Z,7Z,10Z,13Z,16Z,19Z)-docosa-4,7,10,13,16,19-hexaenoate]", "values": [{"measurement": "open field: time active", "setting": "Pex7 hypomorph/null mice; [4]", "value": "significant decrease in activity and normalization of the hyperactive phenotype"}, {"measurement": "open field: total distance traveled", "setting": "Pex7 hypomorph/null mice; [4]", "value": "significant decrease in activity and normalization of the hyperactive phenotype"}, {"measurement": "hyperactivity phenotype", "setting": "Pex7 hypomorph/null mice; 50 mg/kg oral, p<0.05", "value": "significant improvement"}, {"measurement": "level of the cyclized (closed ring) form after incubation", "setting": "[1]; aqueous control and pH 1-5, one hour, room temperature", "value": "almost undetectable in all samples; also recorded: minimal intact PPI-1040 being observed"}, {"measurement": "cleavage of the sn-1 vinyl-ether bond (loss of sn-1 group)", "setting": "[1]; control and pH 3-5, one hour", "value": "minimal loss of the sn-1 group"}, {"measurement": "cleavage of the sn-1 vinyl-ether bond (loss of sn-1 group)", "setting": "[1]; pH 1, one hour", "value": "overall degradation of the molecule; also recorded: largely degraded"}, {"measurement": "stability of open ring form (PlsEtn 16:0/22:6)", "setting": "[1]; pH 1, one hour", "value": "very little being detected"}, {"measurement": "cleavage of the sn-1 vinyl-ether bond (loss of sn-1 group)", "setting": "[1]; pH 2, one hour", "value": "cleavage of the vinyl group is prevalent; also recorded: observed beginning at pH2"}, {"measurement": "stability of open ring form (PlsEtn 16:0/22:6)", "setting": "[1]; pH 2, one hour", "value": "slight reduction"}, {"measurement": "long term potentiation (LTP) of fEPSP", "setting": "[2]", "value": "increased LTP compared to vehicle treated controls"}, {"measurement": "16:0 plasmalogen pool in serum (FIG. 5: plasma)", "setting": "[3]", "value": "elevated to levels significantly above control"}, {"measurement": "liver levels of the target plasmalogen (16:0/22:6)", "setting": "[3]", "value": "elevated to above control levels"}, {"measurement": "liver total 16:0 plasmalogen pool", "setting": "[3]", "value": "elevated to above control levels"}, {"measurement": "lung levels of the target plasmalogen (16:0/22:6)", "setting": "[3]", "value": "elevated to control levels"}, {"measurement": "lung total 16:0 plasmalogen pool", "setting": "[3]", "value": "elevated to control levels"}, {"measurement": "target 16:0/22:6 ethanolamine plasmalogen in serum (FIG. 5: plasma)", "setting": "[3]", "value": "elevated to levels significantly higher than control"}]}]}
